Results on four compounds are retold here after patent US7307062B2, “Method for treating a mental disorder” (priority 2003, dated 2007).

For data set [1], the system named is child with autistic disorder. Briefly: Case history five (autistic disorder). The data set is classed as in vivo, human.
The subject of data set [2] is child with autistic disorder. Briefly: Case history CM (autistic disorder). The following applies: clarithromycin. It is filed as in vivo, human. An excerpt:
[…] They remained hospitalized for 80 days and suffered from significant medical complications due to their premature birth. […] They have severe delays in fine and gross motor skills. Also, severe delays in receptive and expressive language, consistent with their premature birth. […] […] […] Specific behaviors include irritability and temper tantrums, odd meaningless movements, and odd meaningless vocalizations. […] In spite of the placement of tympanostomy tubes […], […] continued to develop recurrent and persistent otis media untila second set of tubes were inserted approximately six months later. […] Head banging and tantrums stopped.

The test system of data set [3] is children with regressive onset autism. The data set is described as follows: Open-label trial of oral vancomycin in children with regressive-onset autism.
Data set [4] deals with child with autistic disorder. The data set is described as follows: Case study one (autistic disorder), successive antimicrobial and probiotic treatments.
A further data set concerns children with autism. The data set is described as follows: Vancomycin and retreatment followed by probiotic fecal enema in children with autism lacking peptostreptococcal species. The following applies: four children with autism.
The test system of data set [5] is person with psychiatric symptoms. Briefly: Case study four (major depressive disorder, obsessive compulsive disorder, atypical psychosis, Crohn's disease). It is filed as in vivo, human. An excerpt:
patient four was a person whose symptoms were consistent with major depressive disorder, obsessive compulsive disorder, and atypical psychosis. Standard anti-psychotic medications were unsuccessful in treating the symptoms. The person also had severe gastrointestinal symptoms and was subsequently diagnosed with Crohn's disease. The person began treatment with prednisone and mesalamine, a standard therapy for Crohn's disease. […] Behavior problems were absent. […] A few months thereafter, the person experienced an acute psychiatric relapse and was admitted to the hospital. A colonoscopy confirmed active lesions in the right colon consistent with Crohn's disease. Treatment with prednisone and mesalamine was initiated for their Crohn's disease, with the prednisone later tapered to 20 mg/day after several months. […] the person was able to return to high school and completed their junior year with high honors.

Data set [6] deals with child with Childhood Disintegrative Disorder. The data set is described as follows: Case history two (childhood disintegrative disorder), metronidazole therapy. The data set is classed as in vivo, human.
Data set [7] deals with adolescent with ADHD, bipolar and conduct disorder. The data set is described as follows: Case study three (ADHD, major depressive disorder, bipolar).
Setting [8] is: Wilcoxon Signed Ranks Z=−2.9, p=0.003, baseline vs during therapy.
The mark [9] stands for this setting: vancomycin 500 mg/day orally, of ten children studied.
Where [10] appears, read: metronidazole standard dosage for 17 days.

Entries after “also recorded” stand apart in the source; their conditions may differ.

In the case of `COCC1=C(C(=O)OC(C)OC(=O)OC(C)C)N2C(=O)[C@@H](NC(=O)/C(=N\OC)c3csc(N)n3)[C@H]2SC1` (stereo partly drawn) [cefpodoxime proxetil], the “behavior as soon as antibiotics were finished” value in data set [1] (in vivo) is “became more hyper, more easily aggitated, and more aggressive”. Further, in data set [1] (prescribed for ear infection, calmness, improved sleep patterns, more signs for communication), the “autistic symptoms while taking the antimicrobial” value is “positive improvement in their autistic symptoms”.
Consider `CC[C@H]1OC(=O)[C@H](C)[C@@H](O[C@H]2C[C@@](C)(OC)[C@@H](O)[C@H](C)O2)[C@H](C)[C@@H](O[C@@H]2O[C@H](C)C[C@H](N(C)C)[C@H]2O)[C@](C)(OC)C[C@@H](C)C(=O)[C@H](C)[C@@H](O)[C@]1(C)O` [clarithromycin], for which, in data set [2], the “behavior, parental report” value is “became more cooperative and was much calmer”; the “head banging and tantrums, parental report” value was “stopped”.
Consider `CN[C@H](CC(C)C)C(=O)N[C@H]1C(=O)N[C@@H](CC(N)=O)C(=O)N[C@H]2C(=O)N[C@H]3C(=O)N[C@H](C(=O)N[C@H](C(=O)O)c4cc(O)cc(O)c4-c4cc3ccc4O)[C@H](O)c3ccc(c(Cl)c3)Oc3cc2cc(c3O[C@@H]2O[C@H](CO)[C@@H](O)[C@H](O)[C@H]2O[C@H]2C[C@](C)(N)[C@H](O)[C@H](C)O2)Oc2ccc(cc2Cl)[C@H]1O` [vancomycin], for which, in data set [3] (setting [8]), the “behavior, unblinded analog rating scale, group as a whole” value is recorded as “improvement” and the “communication, unblinded analog rating scale, group as a whole” value is “improvement”. Besides, in data set [3] (after the hyperactivity period), the “subjects with a day of marked lethargy” value was “One”. In addition, in data set [3] (baseline and throughout the study, all children), the “basic blood, stool, and urine tests; physical examinations” value is reported as “unremarkable”. The “analog ratings at long-term follow-up” value in data set [3] (two to eight months after discontinuance, in all but one child) is reported as “returned towards baseline”. Besides, the “children with improvement during therapy, blinded assessment of coded, paired videotapes” value in data set [3] (vancomycin 500 mg/day orally for eight weeks, ten of eleven children scored by blinded psychologist) is 8 of 10 and eight of ten. For the same compound, in data set [3] (setting [9]), the “children with no change, blinded assessment of coded, paired videotapes” value was “one” and the “children with possible deterioration, blinded assessment of coded, paired videotapes” value is “one”. In addition, the “duration of period of hyperactivity” value in data set [3] (within three days of initiating antibiotic treatment) is 1 to 4 days. For the same compound, the “children with a brief period of hyperactivity” value in data set [3] (within three days of initiating antibiotic treatment, eleven children) is “six”. In data set [4] (emerged three days after initiation of vancomycin), the “duration of hyperactivity pattern” value is on record as “four”. In data set [4] (following hyperactivity pattern on vancomycin), the duration of lethargy entry is given as “two”. Also, the “behavior after vancomycin discontinuation” value in data set [4] (shortly after discontinuation, while taking probiotic agents) is “behavioral deterioration was observed”. In addition, the clinical response result in data set [4] (vancomycin 125 mg q.i.d., 12-week trial) was “rapid and dramatic clinical improvement”. Also, the “composite score, Vineland Adaptive Behavior Scales” value in data set [4] (vancomycin 125 mg q.i.d., after 8 weeks) was determined as 19 months. In addition, the “increase of composite score, Vineland Adaptive Behavior Scales” value in data set [4] (vancomycin 125 mg q.i.d., first 8 weeks of treatment, baseline 11 months) was found to be 8 months. Besides, the “relapse after discontinuance of antimicrobial therapy” value in the data set with children with autism was “relapsed within two weeks”. The response to treatment entry with children with autism (complete absence of peptostreptococcal species in stool) is given as “responded favorably”.
Turning to `Cc1ncc([N+](=O)[O-])n1CCO` [metronidazole], in data set [5] (after first metronidazole course), the “time of first deterioration in behavior” value is “two months following the discontinuance”. For the same compound, the “clinical response, first course” value in data set [5] (metronidazole 250 mg t.i.d. six weeks, with prednisone and mesalamine) is “rapid improvement in attitude, mood and rebounded academically”. In addition, the “clinical response, second course” value in data set [5] (metronidazole 500 mg t.i.d. for 30 days, within three weeks) was “dramatic improvement in their psychiatric symptoms”. Moreover, the “Social behavior, After Metronidazole” value in data set [6] (after discontinuation, on Lactobacillus Acidophilus GG) is “Reverted to baseline”. The “Attitude/State of Mind, After Metronidazole” value in data set [6] (after discontinuation, on Lactobacillus Acidophilus GG 20 billion cells per day) is given as “Reverted to baseline”. Besides, the “Speech, After Metronidazole” value in data set [6] (after discontinuation, on Lactobacillus Acidophilus GG, logic and coherence of speech) is on record as “Initially regressed,”; in data set [6] (after discontinuation, on Lactobacillus Acidophilus GG, voice quality), “Reverted to baseline”. Further, the “Ability: Physical or Mental, After Metronidazole” value in data set [6] (after discontinuation, on Lactobacillus Acidophilus GG, sleep) is “Remained somewhat”. The “Ability: Physical or Mental, During Metronidazole” value in data set [6] (setting [10]) is given as “Fell asleep quickly”. For the same compound, in data set [6] (setting [10]), the “Attitude/State of Mind, During Metronidazole” value is “Aware of surroundings; also recorded: Relaxed and calm; also recorded: Happy, pleasant”. Besides, the “Social behavior, During Metronidazole” value was “No aggression towards” in data set [6] (metronidazole standard dosage for 17 days, aggression towards little brother); “Marked improvement in” in data set [6] (metronidazole standard dosage for 17 days, peer interaction and play skills). In addition, the “Speech, During Metronidazole” value in data set [6] (metronidazole standard dosage for 17 days, logic and coherence of speech) is reported as “Speech on topic, more”; in data set [6] (metronidazole standard dosage for 17 days, social communication) it was “Initiated and”; in data set [6] (metronidazole standard dosage for 17 days, voice quality) it was “Voice normal, natural,”. Moreover, in data set [6] (within a week after the discontinuation of metronidazole), the “positive gains after discontinuation” value was “began to deteriorate”. In data set [7] (after two months of metronidazole treatment), the “rating of behavior problems previously severe in degree” value is on record as “slight in degree or completely resolved”. Besides, the “behavior during first week of treatment” value in data set [7] (metronidazole 500 mg b.i.d.) is on record as “highly agitated”. Besides, the behavior after discontinuation result in data set [7] (two weeks after metronidazole therapy was discontinued) is “behavior deteriorated”. The “aggressive and hyperactive behaviors” value in data set [4] (metronidazole 250 mg t.i.d. for 21 days, end of treatment) is on record as “substantially reduced”.
